Values of other authors, collected in patent US9782413B2, “Composition for treatment of essential thrombocythemia” (AOP ORPHAN PHARMACEUTICALS AG, priority 2010, dated 2017).

Key:
[1] = after anagrelide administration
[2] = tested on: phosphodiesterase (PDE) 3

delay of peak plasma level compared to the parent drug [1] | phosphodiesterase (PDE) 3 inhibitory activity [2] | Structure (SMILES) | platelet reduction in vivo (platelets)
about 45 mm | considerably more potent than anagrelide | O=C1NC2=Nc3ccc(Cl)c(Cl)c3CN2C1O (stereo not shown) [3-hydroxyanagrelide] | –
– | lacks these activities | NC1=Nc2ccc(Cl)c(Cl)c2CN1 [RL 603, 2-amino-5,6-dichloro-3,4-dihydroquinazolone] | lacks these activities
